The record followed here is paper PMC4140852 (PLoS Pathogens, 2014).

The target of this test is T1, APRc (rAPRc activation product, rAPRc105-231) (Rickettsia conorii, UniProt Q92FY8).
T1 construct: gene RC1339
The class given is biochemical.

T1 sequence (Q92FY8 105-231 limits assumed): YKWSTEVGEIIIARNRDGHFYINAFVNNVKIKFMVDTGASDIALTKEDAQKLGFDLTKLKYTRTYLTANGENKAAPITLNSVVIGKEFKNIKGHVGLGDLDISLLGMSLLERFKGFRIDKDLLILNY

Turning to `CC(C)(C)NC(=O)[C@@H]1CN(Cc2cccnc2)CCN1C[C@@H](O)C[C@@H](Cc1ccccc1)C(=O)N[C@H]1c2ccccc2C[C@H]1O` [indinavir], the “% inhibition at 0.25 mM” value is listed as “incubation with indinavir resulted in a near complete inhibition of APRc”.
